Measured values reported in patent US11369659B2, “Method of enhancing a brain or cognitive function” (Brainon Inc., priority 2015, dated 2022).

Assays:
[1] = tested on: scopolamine-induced memory deterioration; assay: Y maze test; assay type: in vivo, ICR mice; settings: for spontaneous alternation (memory improving effect): male ICR mice, peptide intraperitoneally 30 minutes before scopolamine, scopolamine 30 minutes before test, compared with scopolamine-administered group
Description: Scopolamine was purchased from Sigma-Aldrich (St. Louis, Mo., USA). 4-week-old male ICR mice were purchased from Korean BioLink Co. (Chungbuk, Korea). After an adaptation period of one week, the mice were used in a test and all reagents were administered intraperitoneally.
The mouse was placed at one end of a Y maze with a length of one branch of 30 cm, a width of 5 cm, and a height of 13 cm and the order of entry into each branch was recorded. Alternation was judged to be successful if the mouse sequentially entered three different branches. Spontaneous alternation was defined as Equation below. Spontaneous alternation (%)=the number of alternations/(total number of entries−2)×100

[2] = tested on: scopolamine-induced memory deterioration; assay: step-through passive avoidance test; assay type: in vivo; settings: male ICR mice; peptide intraperitoneally 30 minutes before scopolamine; scopolamine 30 minutes before test; retention trial after 24 hours; compared with scopolamine-administered group
Description: Louis, Mo., USA). 4-week-old male ICR mice were purchased from Korean BioLink Co. (Chungbuk, Korea). After an adaptation period of one week, the mice were used in a test and all reagents were administered intraperitoneally. […] A passive avoidance test was performed in the same bright room and dark room. A floor of each room was formed in a shape in which 2-mm stainless steel rods were separated from each other at 1-cm intervals. Bright squares (20×20×20 cm) had 100-W bulbs. These squares were connected to a guillotine door. For an acquisition trial, the mouse was placed in the bright room after injection of the reagents and the door was opened after 10 seconds. When the mouse completely entered the dark room, the door was closed and electric shock was applied for 3 seconds. A retention trial was performed after 24 hours of the acquisition trial and the mouse was positioned in the bright room. A latency time of the acquisition and retention trials was measured by a time until the mouse entered the dark room of the box after the door was opened. The retention latency in the passive avoidance test represents a long-term memory function in rodents.

Molecule	mean of spontaneous alternations ([1]; scopolamine-injected group compared with normal saline group)	retention trial latency time (memory improving effect) [2]	spontaneous alternation (memory improving effect) [1]	spontaneous alternation (memory improving effect) ([1]; listed as sequence number 2)
CN1[C@@H]2C[C@@H](OC(=O)[C@H](CO)c3ccccc3)C[C@H]1[C@@H]1O[C@@H]12 [scopolamine, Scopolamine, reference compound]	significantly lowered			
GAG [Peptide-2]		improved to be close to a normal group administered with saline	slight improvement	excellent effect as compared with a control group
AGAG [Peptide-3]		a little effect	excellent effect as compared with a control group	
